Laboratory results from publication PMC10961402, “Safety, tolerability, pharmacokinetics and pharmacokinetic-pharmacodynamic modeling of cetagliptin in patients with type 2 diabetes mellitus” (Frontiers in Endocrinology, 2024).
Read-outs that look alike come from different tables or passages of the source.

Key:
plasma DPP-4 activity = molecular target: T1, plasma DPP-4 activity (Homo sapiens, UniProt P27487); experiment: Plasma DPP-4 inhibition relative to baseline (fluorescent method, Gly-Pro-7-amide-4-methylcoumarin); format: in vivo; conditions: patients with T2DM; for DPP-4 inhibition TRmax,ss / DPP-4 inhibition TRmax: median (range)
T1 construct: from tissue; host or cells: human plasma (K2-EDTA blood from T2DM patients)
T1 sequence (P27487 39-766 limits assumed): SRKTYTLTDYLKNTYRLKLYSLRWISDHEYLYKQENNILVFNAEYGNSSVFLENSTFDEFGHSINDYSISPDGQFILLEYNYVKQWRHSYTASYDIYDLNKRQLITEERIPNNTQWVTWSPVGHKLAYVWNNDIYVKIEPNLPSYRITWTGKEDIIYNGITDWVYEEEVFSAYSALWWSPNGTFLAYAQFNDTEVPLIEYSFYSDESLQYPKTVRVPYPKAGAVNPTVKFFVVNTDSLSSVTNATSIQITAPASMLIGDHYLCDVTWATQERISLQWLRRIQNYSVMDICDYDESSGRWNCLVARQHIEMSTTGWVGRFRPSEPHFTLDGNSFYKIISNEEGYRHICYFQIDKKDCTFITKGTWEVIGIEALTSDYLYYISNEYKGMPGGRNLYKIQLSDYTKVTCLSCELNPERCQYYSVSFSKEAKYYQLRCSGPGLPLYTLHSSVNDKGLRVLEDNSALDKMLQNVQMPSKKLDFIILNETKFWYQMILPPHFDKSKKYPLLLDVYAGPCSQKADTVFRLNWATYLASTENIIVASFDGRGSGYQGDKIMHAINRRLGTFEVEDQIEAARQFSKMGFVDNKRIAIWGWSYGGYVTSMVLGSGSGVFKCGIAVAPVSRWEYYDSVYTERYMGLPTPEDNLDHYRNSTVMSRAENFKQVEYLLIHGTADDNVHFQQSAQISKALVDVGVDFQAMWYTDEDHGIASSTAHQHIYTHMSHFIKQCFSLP
Procedure: Blood samples for DPP-4 activity determination were collected at the same time points as for PK. 1 mL blood samples were collected into blood-collecting tubes containing K2-EDTA. The tubes were placed on ice until centrifugation. The blood samples were centrifuged at 2-8°C, 1500 g for 10 min within 1 hour after blood collection. After centrifugation, the supernatant were evenly divided into two aliquots and stored at -80 ± 10°C. The plasma DPP-4 activity was determined using a fluorescent method with the substrate Gly-Pro-7-amide-4-methylcoumarin. A range of 3-400 µM was covered by the linear calibration.
The degree of inhibition of DPP-4 enzyme activity relative to baseline (DPP-4 inhibition, %) after administration was calculated as the following equation:
DPP−4 inhibition (%)=(1−DPP−4 activity/DPP−4 activity,Baseline)×100

[1] = Plasma pharmacokinetics after single and multiple oral doses (non-compartmental analysis); format: in vivo, human; conditions: patients with T2DM; for Tmax,ss / Tmax: median (range)
Procedure: This was a single-center, randomized, double-blind, placebo and positive-controlled, single and multiple oral-dose study. A total of 32 Chinese adults diagnosed with T2DM were recruited for this study and allocated into two dosage groups: 50 mg and 100 mg, each consisting of 16 participants. […] The positive control was designed as open label. […] Subjects underwent medication randomization on day -1, and were assigned the corresponding investigational products. They were orally administered to the drug once every morning on fasting condition for 14 consecutive days. […] After finished the dosing, another OGTT was performed on day 15. Blood samples were collected at designated time points for the analysis of PK/PD and exploratory indicators. Subjects were discharged after completion of the safety assessments on day 19. […] PK parameters were calculated using non-compartmental analysis with Phoenix WinNonlin (version 8.1, Certara, Co., Princeton, NJ, United States). Peak plasma concentration after administration (Cmax) and time to reach Cmax (Tmax) were obtained directly from the observed data, elimination half-life (t1/2) was calculated as ln2/λz using the best fit mode, where λz was the terminal elimination rate constant. Area under the plasma concentration-time curve from zero to the last measurable concentration (AUC0-t) was estimated using the linear trapezoidal method and AUC from zero to infinity (AUC0-∞) was calculated as AUC0-t+Ct/λz, where Ct was the last measured concentration. […] Apparent total plasma clearance after non-intravenous (CL/F) and apparent volume of distribution in terminal phase after non-intravenous (Vz/F) were calculated as Dose/AUC0-∞ and CL/λz, respectively.

[2] = design: method as in PMID 34655432; conditions: healthy subjects; single oral doses of 12.5 to 400 mg; cited from earlier work
[3] = design: method as in PMID 34965609; conditions: healthy subjects, cited from earlier work
[4] = 50 mg oral once daily, day 14, listed as cetagliptin
[5] = 100 mg oral once daily, day 14, listed as cetagliptin
[6] = 50 mg oral once daily, listed as cetagliptin
[7] = 100 mg oral once daily, listed as cetagliptin

With C[C@@H]1c2cnc(C(F)(F)F)n2CCN1C(=O)C[C@H](N)Cc1cc(F)c(F)cc1F.O=P(O)(O)O [Cetagliptin, cetagliptin] the “accumulation ratio of AUEC0-24h of DPP-4 inhibition” value (plasma DPP-4 activity; 50 mg once daily) was about 1, the “DPP-4 inhibition AUEC0-24h” value (plasma DPP-4 activity; 50 mg oral once daily, day 14) was 2010 ± 54.1 h*% and the “DPP-4 inhibition Rmax,ss” value (plasma DPP-4 activity; 50 mg oral once daily, day 14) was 89.47 ± 1.12%. For the same compound, the “DPP-4 inhibition Rmin,ss” value (plasma DPP-4 activity; 50 mg oral once daily, day 14) was 77.24 ± 4.52%, the “DUR80% (duration for DPP-4 inhibition rate of >80%)” value (plasma DPP-4 activity; 50 mg oral once daily, day 14) was 21.9 ± 7.05 h and the “E24h (DPP-4 inhibition at 24 h postdose)” value (plasma DPP-4 activity; 50 mg oral once daily, day 14) was 78.43 ± 3.85%. The “DUR80% (duration for DPP-4 inhibition rate of >80%)” value (plasma DPP-4 activity; [4]) was 21.9 h, the “DPP-4 inhibition TRmax,ss” value (plasma DPP-4 activity; 50 mg oral once daily, day 14) was 2.00 (0.500-6.00) h and the “DPP-4 inhibition AUEC0-24h” value (plasma DPP-4 activity; 50 mg oral, day 1) was 1820 ± 77.9 h*%. For the same compound, the “DPP-4 inhibition Rmax” value (plasma DPP-4 activity; 50 mg oral, day 1) was 86.39 ± 1.75%, the “DUR80% (duration for DPP-4 inhibition rate of >80%)” value (plasma DPP-4 activity; 50 mg oral, day 1) was 8.39 ± 2.37 h and the “E24h (DPP-4 inhibition at 24 h postdose)” value (plasma DPP-4 activity; 50 mg oral, day 1) was 68.75 ± 4.75%. The “DUR80% (duration for DPP-4 inhibition rate of >80%)” value (plasma DPP-4 activity; 50 mg oral, day 1, listed as cetagliptin) was 8.39 h, the “DPP-4 inhibition TRmax” value (plasma DPP-4 activity; 50 mg oral, day 1) was 2.00 (0.500-3.00) h and the “sustained DPP-4 inhibition (≥80%) compared with sitagliptin” value (plasma DPP-4 activity; 100 mg cetagliptin vs 100 mg sitagliptin, multiple administration) was “much longer”. The “accumulation ratio of AUEC0-24h of DPP-4 inhibition” value (plasma DPP-4 activity; 100 mg once daily) was about 1, the “DPP-4 inhibition AUEC0-24h” value (plasma DPP-4 activity; 100 mg oral once daily, day 14) was 2090 ± 24.4 h*% and the “DPP-4 inhibition Rmax,ss” value (plasma DPP-4 activity; 100 mg oral once daily, day 14) was 89.99 ± 0.91%. For the same compound, the “DPP-4 inhibition Rmin,ss” value (plasma DPP-4 activity; 100 mg oral once daily, day 14) was 84.28 ± 1.61%, the “DUR80% (duration for DPP-4 inhibition rate of >80%)” value (plasma DPP-4 activity; 100 mg oral once daily, day 14) was 32.3 ± 4.53 h and the “E24h (DPP-4 inhibition at 24 h postdose)” value (plasma DPP-4 activity; 100 mg oral once daily, day 14) was 83.91 ± 1.39%. The “DUR80% (duration for DPP-4 inhibition rate of >80%)” value (plasma DPP-4 activity; [5]) was 32.3 h, the “DPP-4 inhibition TRmax,ss” value (plasma DPP-4 activity; 100 mg oral once daily, day 14) was 2.00 (1.00-3.00) h and the “DPP-4 inhibition AUEC0-24h” value (plasma DPP-4 activity; 100 mg oral, day 1) was 2000 ± 41.6 h*%. For the same compound, the “DPP-4 inhibition Rmax” value (plasma DPP-4 activity; 100 mg oral, day 1) was 88.78 ± 1.04%, the “DUR80% (duration for DPP-4 inhibition rate of >80%)” value (plasma DPP-4 activity; 100 mg oral, day 1) was 21.1 ± 3.42 h and the “E24h (DPP-4 inhibition at 24 h postdose)” value (plasma DPP-4 activity; 100 mg oral, day 1) was 79.75 ± 2.63%. The “DUR80% (duration for DPP-4 inhibition rate of >80%)” value (plasma DPP-4 activity; 100 mg oral, day 1, listed as cetagliptin) was 21.1 h, the “DPP-4 inhibition TRmax” value (plasma DPP-4 activity; 100 mg oral, day 1) was 1.00 (1.00-3.00) h and the “RAUC (accumulation ratio of AUC0-24h, day 14/day 1)” value ([1]; 50 mg oral once daily) was 2.13 ± 0.225. For the same compound, the “RCmax (accumulation ratio of Cmax, day 14/day 1)” value ([1]; 50 mg oral once daily) was 2.01 ± 0.417, the AUC0-24h ([1]; 50 mg oral once daily, day 14) was 1530 ± 274 ng·h/mL and the “AUC0-∞” value ([1]; 50 mg oral once daily, day 14) was 2710 ± 577 ng·h/mL. The AUC(0-t) ([1]; 50 mg oral once daily, day 14) was 2510 ± 512 ng·h/mL, the CLss/F ([1]; 50 mg oral once daily, day 14) was 33.6 ± 5.86 L/h and the Cavg ([1]; 50 mg oral once daily, day 14) was 63.9 ± 11.4 ng/mL. The “Cmax,ss” value ([1]; 50 mg oral once daily, day 14) was 162 ± 58.1 ng/mL, the “Vz,ss/F” value ([1]; 50 mg oral once daily, day 14) was 2010 ± 610 L and the t1/2 ([1]; 50 mg oral once daily, day 14) was 41.9 ± 11.0 h. The CLss/F [1, 4] was 33.6 L/h, the “Tmax,ss” value ([1]; 50 mg oral once daily, day 14) was 1.00 (0.500-5.00) h and the “RAUC (accumulation ratio of AUC0-24h, day 14/day 1)” value [1, 6] was 2.13. For the same compound, the “RCmax (accumulation ratio of Cmax, day 14/day 1)” value [1, 6] was 2.01, the AUC0-24h ([1]; 50 mg oral, day 1) was 717 ± 86.0 ng·h/mL and the Cmax ([1]; 50 mg oral, day 1) was 80.5 ± 23.3 ng/mL. The Tmax ([1]; 50 mg oral, day 1) was 2.00 (1.00-4.00) h, the “RAUC (accumulation ratio of AUC0-24h, day 14/day 1)” value ([1]; 100 mg oral once daily) was 1.75 ± 0.305 and the “RCmax (accumulation ratio of Cmax, day 14/day 1)” value ([1]; 100 mg oral once daily) was 1.49 ± 0.542. The AUC0-24h ([1]; 100 mg oral once daily, day 14) was 3120 ± 263 ng·h/mL, the “AUC0-∞” value ([1]; 100 mg oral once daily, day 14) was 4780 ± 361 ng·h/mL and the AUC(0-t) ([1]; 100 mg oral once daily, day 14) was 4580 ± 356 ng·h/mL. The CLss/F ([1]; 100 mg oral once daily, day 14) was 32.2 ± 2.57 L/h, the Cavg ([1]; 100 mg oral once daily, day 14) was 130 ± 11.0 ng/mL and the “Cmax,ss” value ([1]; 100 mg oral once daily, day 14) was 300 ± 46.9 ng/mL. The “Vz,ss/F” value ([1]; 100 mg oral once daily, day 14) was 1640 ± 628 L, the t1/2 ([1]; 100 mg oral once daily, day 14) was 34.9 ± 12.3 h and the CLss/F [1, 5] was 32.2 L/h. The “Tmax,ss” value ([1]; 100 mg oral once daily, day 14) was 1.00 (0.500-3.00) h, the “RAUC (accumulation ratio of AUC0-24h, day 14/day 1)” value [1, 7] was 1.75 and the “RCmax (accumulation ratio of Cmax, day 14/day 1)” value [1, 7] was 1.49. The AUC0-24h ([1]; 100 mg oral, day 1) was 1830 ± 347 ng·h/mL, the Cmax ([1]; 100 mg oral, day 1) was 219 ± 72.3 ng/mL and the Tmax ([1]; 100 mg oral, day 1) was 1.00 (1.00-3.00) h. The “mean t1/2 (half-life)” value ([1]; multiple oral doses, range over 50 mg and 100 mg groups) was 34.9 to 41.9 h, the “time of daily dosing after which steady-state conditions were reached” value ([1]; once daily dosing, trough concentrations days 7, 10, 14) was 1 week and the dose-limiting toxicity [2] was “no dose-limiting toxicity observed”. The “AUC0-τ (steady state)” value ([3]; 50 mg) was 1440 ng·h/mL, the “Cmax (steady state)” value ([3]; 50 mg) was 125 ng/mL and the RAUC ([3]; 50 mg) was 1.72. The “Tmax (steady state)” value ([3]; 50 mg) was 1.5 h, the “t1/2 (steady state)” value ([3]; 50 mg) was 38.8 h and the “AUC0-τ (steady state)” value ([3]; 100 mg) was 3120 ng·h/mL. For the same compound, the “Cmax (steady state)” value ([3]; 100 mg) was 294 ng/mL, the RAUC ([3]; 100 mg) was 1.38 and the “Tmax (steady state)” value ([3]; 100 mg) was 1.0 h. For the same compound, the “t1/2 (steady state)” value ([3]; 100 mg) was 36.6 h.
